Results from patent publication US8101619B2, “Phenylpiperazine derivatives with a combination of partial dopamine-D2 receptor agonism and serotonin reuptake inhibition” (Solvay Pharmaceuticals B.V., priority 2004, dated 2012).
Structures can show the parent of a compound that is named as a salt.

Assays:
[1] = molecular target: T1, dopamine-D2 receptors (Rattus norvegicus, UniProt P61169); assay: In vitro affinity for dopamine-D2 receptors ([3H]-spiroperidol receptor binding assay); settings: read-out: Dopamine-D2 binding pKi (converted)
T1 construct: labels dopamine receptors in rat pituitary and brain; from tissue
Experimental: In Vitro Affinity for Dopamine-D2 Receptors
Affinity of the compounds for dopamine-D2 receptors was determined using the receptor binding assay described by 1. Creese, R. Schneider and S. H. Snyder: “[^3H]-Spiroperidol labels dopamine receptors in rat pituitary and brain”, Eur. J. Pharmacol., 46, 377-381, 1977.

[2] = molecular target: T2, Human dopamine D2,L receptors (Homo sapiens, UniProt P14416); assay: Inhibition of forskolin-induced [3H]-cAMP accumulation in CHO-K1 cells; assay type: cell-based; settings: cloned human dopamine D2,L receptors in CHO-K1 cells; full agonist ε=1, full antagonist ε=0
T2 construct: host or cells: CHO-K1
Experimental: Inhibition of Forskolin-Induced [^3H]-cAMP Accumulation
The in vitro functional activity at dopamine-D2 receptors, including the intrinsic activity (ε) of the compounds of the invention was measured by their ability to inhibit forskolin-induced [^3H]-cAMP accumulation.
Human dopamine D2,L receptors were cloned in fibroblast cell line CHO-K1 cells and obtained from Dr. Grandy, Vollum Institute, Portland, Oreg., USA. CHO cells were grown in a Dulbecco's modified Eagle's medium (DMEM) culture medium, supplemented with 10% heat-inactivated fetal calf serum, 2 mM glutamine, 1 mM pyruvate, 5000 units/ml penicillin, 5000 μg/ml streptomycin and 200 μg/ml G-418 at 37° C. in 93% air/7% CO2. For incubation with test compounds, confluent cultures grown in 24 wells plates were used. Each condition or substance was routinely tested in quadruplicate. Cells were loaded with 1 μCi [^3H]-adenine in 0.5 ml medium/well. After 2 hours, cultures were washed with 0.5 ml PBS containing 1 mM of the phosphodiesterase inhibitor isobutylmethylxanthine (IBMX) and incubated for 20 min with 0.5 ml PBS containing 1 mM IBMX and forskolin with or without test compound. After aspiration the reaction was stopped with 1 ml trichloroacetic acid 5% (w/v). […] 0.8 ml Extract was passed over Dowex (50WX-4 200-400 mesh) and aluminumoxide columns, eluted with water and 0.1M imidazole (pH=7.5). Eluates were mixed with 7 ml Insta-gel and radioactivity was counted with a liquid scintillation counter. The conversion of [^3H]-ATP into [^3H]-cAMP was expressed as the ratio in percentage radioactivity in the cAMP fraction as compared to combined radioactivity in both cAMP and ATP fractions, and basal activity was subtracted to correct for spontaneous activity.
Test compounds were obtained as 10 mM stock solutions in 100% DMSO, and diluted in PBS/IBMX to final concentrations. Typically, compounds were used in concentrations that ranged from 10^−10M to 10^−5M. From quadruplicate data counts, the mean was taken as an estimate for drug-induced, receptor-mediated effects at specified second messenger accumulation, expressed as percentage of control values (forskolin-stimulated cAMP accumulation, subtracted by basal activity). By using the non-linear curve-fitting program INPLOT or the Excel-add-in XL-Fit, mean values were plotted against drug concentration (in molar) and a sigmoid curve (four-parameter logistic curve) was constructed. The maximal forskolin-induced stimulated conversion is taken as maximum value and the maximal inhibition (usually at drug concentrations 10^−6 M or 10^−5 M) as minimum and these values were fixed during the fitting process. Thus, concentrations of the compound, causing 50% of the maximally obtained inhibition of forskolin-induced cAMP accumulation (EC50), are averaged over several experiments and presented as mean pEC50±SEM. Antagonist potency is assessed by co-incubating cells with a fixed agonist concentration and specified antagonist concentrations. Curve fitting procedures are identical to those used for estimating EC50 values. Thus IC50 values, i.e. the concentration that is able to achieve 50% of maximal antagonism that can be achieved by this compound. IC50 values are corrected using a Cheng-Prussoff equation, correcting it for agonist concentration and EC50 values that is obtained in the same experiment. Thus, Kb=IC50/(1+[agonist]/EC50, agonist). The corresponding pA2 value is −log (Kb). Concentration-response curve fitting allows estimation of pEC50 values and of maximal achievable effect (intrinsic activity or efficacy (ε). A full receptor agonist has ε=1, a full receptor antagonist has ε=0, and a partial receptor agonist has an intermediate intrinsic activity.

[3] = molecular target: T3, serotonin reuptake sites (Rattus norvegicus, UniProt P31652); assay: In vitro affinity for serotonin reuptake sites ([3H]-paroxetine binding assay); settings: receptor binding; read-out: 5-HT reuptake binding pKi (converted)
T3 construct: from tissue
Experimental: In Vitro Affinity for Serotonin Reuptake Sites
Affinity of the compounds for serotonin reuptake sites was determined using the receptor binding assay described by E. Habert et al.: “Characterisation of [^3H]-paroxetine binding to rat cortical membranes”, Eur. J. Pharmacol., 118, 107-114, 1985.

T1 sequence (P61169 whole entry): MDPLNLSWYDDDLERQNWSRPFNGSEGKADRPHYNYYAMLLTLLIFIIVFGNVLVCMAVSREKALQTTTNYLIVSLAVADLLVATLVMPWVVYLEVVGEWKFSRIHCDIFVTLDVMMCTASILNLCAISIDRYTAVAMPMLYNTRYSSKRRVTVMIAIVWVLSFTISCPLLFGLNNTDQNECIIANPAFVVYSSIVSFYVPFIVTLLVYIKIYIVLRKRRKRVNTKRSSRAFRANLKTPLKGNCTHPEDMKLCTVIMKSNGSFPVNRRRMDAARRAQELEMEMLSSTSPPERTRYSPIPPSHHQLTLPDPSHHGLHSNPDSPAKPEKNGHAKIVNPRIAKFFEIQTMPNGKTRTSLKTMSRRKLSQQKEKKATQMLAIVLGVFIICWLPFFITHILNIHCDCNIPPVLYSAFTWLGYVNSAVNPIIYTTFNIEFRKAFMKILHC
T3 sequence (P31652 whole entry): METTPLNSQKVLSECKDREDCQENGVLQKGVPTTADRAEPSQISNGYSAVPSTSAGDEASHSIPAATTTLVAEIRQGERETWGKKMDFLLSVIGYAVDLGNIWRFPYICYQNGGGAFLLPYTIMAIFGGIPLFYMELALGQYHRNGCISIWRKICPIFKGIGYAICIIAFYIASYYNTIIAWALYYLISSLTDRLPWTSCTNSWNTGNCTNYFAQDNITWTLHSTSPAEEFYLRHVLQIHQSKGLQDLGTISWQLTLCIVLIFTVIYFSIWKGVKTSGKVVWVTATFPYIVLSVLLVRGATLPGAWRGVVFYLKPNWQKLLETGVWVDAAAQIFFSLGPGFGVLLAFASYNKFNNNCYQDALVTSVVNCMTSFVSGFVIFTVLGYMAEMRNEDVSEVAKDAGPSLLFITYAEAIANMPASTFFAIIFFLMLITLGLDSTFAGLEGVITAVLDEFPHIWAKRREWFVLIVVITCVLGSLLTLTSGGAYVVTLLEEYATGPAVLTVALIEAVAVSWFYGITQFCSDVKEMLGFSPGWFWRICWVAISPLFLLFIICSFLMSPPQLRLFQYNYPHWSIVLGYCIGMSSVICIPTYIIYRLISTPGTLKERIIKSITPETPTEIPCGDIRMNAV
T2 sequence (P14416 whole entry): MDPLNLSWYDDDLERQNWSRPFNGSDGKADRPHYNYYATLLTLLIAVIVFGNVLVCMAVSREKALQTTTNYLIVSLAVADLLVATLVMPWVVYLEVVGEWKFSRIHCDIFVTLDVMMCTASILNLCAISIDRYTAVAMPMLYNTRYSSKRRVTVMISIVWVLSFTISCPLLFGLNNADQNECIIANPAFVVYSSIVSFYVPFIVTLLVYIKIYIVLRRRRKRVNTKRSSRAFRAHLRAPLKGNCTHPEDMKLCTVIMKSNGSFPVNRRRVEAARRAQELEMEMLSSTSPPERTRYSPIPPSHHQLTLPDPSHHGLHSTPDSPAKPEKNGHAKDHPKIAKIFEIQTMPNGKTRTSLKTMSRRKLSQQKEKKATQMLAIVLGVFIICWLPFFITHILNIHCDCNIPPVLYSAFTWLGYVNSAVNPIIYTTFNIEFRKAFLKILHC

SMILES: CN(CCN1CCN(c2cccc3[nH]c(=O)oc23)CC1)c1cccc(C#N)c1 (as salt: HCl) [compound 14]
- melting point: 230 to 231 °C

SMILES: CN(CCCN1CCN(c2cccc3[nH]c(=O)oc23)CC1)c1cccc(C#N)c1 (as salt: HCl) [compound 15]
- melting point: 195 to 196 °C

SMILES: N#Cc1cccc(SCCCCN2CCN(c3cccc4[nH]c(=O)oc34)CC2)c1 (as salt: HCl) [compound 20]
- melting point: 168 to 170 °C

SMILES: N#Cc1cccc(OCCCN2CCN(c3cc(Cl)cc4[nH]c(=O)oc34)CC2)c1 (as salt: HCl) [compound 26]
- melting point: 251 to 254 °C

SMILES: N#Cc1cccc(OCCCCN2CCN(c3cccc4[nH]c(=O)oc34)CC2)c1 [compound 6]
- melting point: 165 to 168 °C
- Ki [1]: 1 nM
- Dopamine-D2 cAMP accum ε (intrinsic activity) [2]: 0.76
- Ki [3]: 3.98 nM

SMILES: O=c1[nH]c2cccc(N3CCN(CCCCOc4cccc(F)c4)CC3)c2o1 [compound 9]
- melting point: 153 to 155 °C
- Ki [1]: 6.31 nM
- Dopamine-D2 cAMP accum ε (intrinsic activity) [2]: 0.64
- Ki [3]: 100 nM

SMILES: CN(CCN1CCN(c2cccc3[nH]c(=O)oc23)CC1)c1cccc(C#N)c1 [compound 14]
- Ki [1]: 15.8 nM
- Dopamine-D2 cAMP accum ε (intrinsic activity) [2]: 0.57
- Ki [3]: 1 nM

SMILES: CN(CCCN1CCN(c2cccc3[nH]c(=O)oc23)CC1)c1cccc(C#N)c1 [compound 15]
- Ki [1]: 6.31 nM
- Dopamine-D2 cAMP accum ε (intrinsic activity) [2]: 0.61
- Ki [3]: 0.794 nM

SMILES: O=c1[nH]c2cccc(N3CCN(CCCOc4cccc(C(F)(F)F)c4)CC3)c2o1 [compound 17]
- melting point: 140 to 142 °C
- Ki [1]: 25.1 nM
- Dopamine-D2 cAMP accum ε (intrinsic activity) [2]: 0.51
- Ki [3]: 50.1 nM

SMILES: N#Cc1cccc(SCCCCN2CCN(c3cccc4[nH]c(=O)oc34)CC2)c1 [compound 20]
- Ki [1]: 3.98 nM
- Dopamine-D2 cAMP accum ε (intrinsic activity) [2]: 0.98
- Ki [3]: 3.16 nM

SMILES: COc1ccc(C#N)cc1OCCCN1CCN(c2cccc3[nH]c(=O)oc23)CC1 [compound 24]
- melting point: 189 to 190 °C
- Ki [1]: 1.26 nM
- Dopamine-D2 cAMP accum ε (intrinsic activity) [2]: 0.86
- Ki [3]: 12.6 nM

SMILES: N#Cc1cccc(OCCCN2CCN(c3cc(Cl)cc4[nH]c(=O)oc34)CC2)c1 [compound 26]
- Ki [1]: 10 nM
- Dopamine-D2 cAMP accum ε (intrinsic activity) [2]: 0.79
- Ki [3]: 10 nM

SMILES: Cn1c(=O)oc2c(N3CCN(CCCCOc4cccc(F)c4)CC3)cccc21 [compound 31]
- melting point: 95 to 97 °C
- Ki [1]: 63.1 nM
- Dopamine-D2 cAMP accum ε (intrinsic activity) [2]: 0.56
- Ki [3]: 5.01 nM

SMILES: CN(CCCCN1CCN(c2cccc3c2oc(=O)n3C)CC1)c1cccc(C#N)c1 [compound 35]
- melting point: 87 to 89 °C
- Ki [1]: 100 nM
- Dopamine-D2 cAMP accum ε (intrinsic activity) [2]: 0.55
- Ki [3]: 0.631 nM
